Experiment [1] has as its system LPS-activated primary peritoneal macrophages. Put plainly: IL-6 and TNF-α secretion by ELISA. Format: cell-based, C57BL/6 mice. The settings on record: 10-40 µM, LPS 1 µg/ml 24 h. The method, then: The effects of the test samples on IL-1β, TNF-α, and IL-6 production were measured by ELISA according to the manufacturer’s instructions. In brief, 50 µl of biotinylated antibody reagent and 50 µl of supernatant were added to a stripwell plate precoated with anti-mouse IL-1β, TNF-α, or IL-6 antibodies, which was then incubated at room temperature for 2 h. After washing the plate three times with washing buffer, 100 µl of diluted streptavidin-HRP concentrate was added to each well and the plate incubated at room temperature for 30 min. […] After addition of 100 µl of stop solution to each well, the absorbance at 450 nm of each well was measured on a microplate reader.
Figure 3 Effect of compound 1h on LPS-induced secretion of IL-6 and TNF-α by J774A.1 macrophages, peritoneal macrophages, and JAWSII dendritic cells. (A) J774A.1 macrophages, (B) peritoneal macrophages, or (C) JAWSII dendritic cells (all 4 × 10^5/ml; 1 ml) were incubated for 30 min with 10-40 µM compound 1h or DMSO, then LPS (1 µg/ml) was added and incubation continued for 24 h, then IL-6 levels (left panels) and TNF-α levels (right panels) in the culture medium were measured by ELISA. The data are expressed as the mean ± SD for three separate experiments. *, **, and *** indicate a significant difference at the level of p < 0.05, p < 0.01, or p < 0.001, respectively, compared to the DMSO/LPS group.

The test system of experiment [2] is NLRP3 inflammasome in LPS+ATP-activated J774A.1 macrophages. Put plainly: NLRP3 inflammasome activation (IL-1β ELISA, caspase-1 p10 Western blot). The format is cell-based, mouse. The conditions noted are these: then ATP 5 mM 30 min. How it is done:
The effects of the test samples on IL-1β, TNF-α, and IL-6 production were measured by ELISA according to the manufacturer’s instructions. In brief, 50 µl of biotinylated antibody reagent and 50 µl of supernatant were added to a stripwell plate precoated with anti-mouse IL-1β, TNF-α, or IL-6 antibodies, which was then incubated at room temperature for 2 h. After washing the plate three times with washing buffer, 100 µl of diluted streptavidin-HRP concentrate was added to each well and the plate incubated at room temperature for 30 min. The washing process was repeated, then 100 µl of a premixed tetramethylbenzidine substrate solution was added to each well and the plate incubated at room temperature in the dark for 30 min. After addition of 100 µl of stop solution to each well, the absorbance at 450 nm of each well was measured on a microplate reader.
Cells were washed twice with ice-cold phosphate-buffered saline (PBS) and lysed on ice for 5 min with lysis buffer (20 mM Tris-HCl, pH 7.5, 150 mM NaCl, 1 mM Na 2EDTA, 1 mM EGTA, 1% Triton X-100, 2.5 mM sodium pyrophosphate, 1 mM beta-glycerophosphate, 1 mM Na 3VO4, 1 µg/ml of leupeptin, 1 mM PMSF, protease inhibitor cocktail). The lysate was then centrifuged at 12,000 x g at 4 °C for 10 min and the pellet discarded. Proteins in the supernatant were separated by SDS-PAGE and electrotransferred to a PVDF membrane (EMD Millipore Corporation), which was then blocked by incubation for 1 h at room temperature in blocking buffer [(5% nonfat milk in PBS containing 0.1% Tween 20 (PBST)], then incubated for 2 h at room temperature with the primary antibody diluted in blocking buffer. After three washes in PBST, the membrane was incubated for 1 h at room temperature with an appropriate HRP-conjugated secondary antibody diluted in blocking buffer and developed using an enhanced chemiluminescence Western blot detection system (EMD Millipore Corporation).
ATP is known to activate the NLRP3 inflammasome in LPS-primed macrophages, leading to caspase-1 activation and IL-1β secretion. To examine whether compound 1h could affect NLRP3 inflammasome activation, the mouse macrophage cell line J774A.1 was used (RAW 264.7 macrophages are not suitable for studying the NLRP3 inflammasome). […]
Figure 4 Effect of compound 1h on NLRP3 inflammasome activation in LPS+ATP-activated J774A.1 macrophages. (A) J774A.1 macrophages (1 × 10^6/ml; 1 ml) or (B) peritoneal macrophages (1 × 10^5/ml; 1 ml) were incubated with 10-40 µM compound 1h or DMSO for 30 min, then LPS (1 µg/ml) was added and incubation continued for 5.5 h, then the cells were stimulated with ATP (5 mM) for an additional 30 min, then IL-1β in the culture medium was measured by ELISA (A, upper panel; B) and levels of active caspase-1 (p10) (A, lower panel) measured by Western blotting. In (C) and (D), J774A.1 macrophages (1 × 10^6/ml; 1ml) were incubated with LPS (1 µg/ml) for 5.5 h, then with 10-40 µM compound 1h or DMSO for 30 min in the continued presence of LPS, followed by stimulation with ATP (5 mM) for an additional 30 min, then IL-1β levels (C, upper panel) and IL-6 levels (D) in the culture medium were measured by ELISA and levels of active caspase-1 (p10) were measured by Western blotting (C, lower panel). […] In (E), J774A.1 macrophages (1 × 10^6/ml; 1 ml) were incubated for 30 min with DMSO or 1-40 µM compound 1h, then LPS (1 µg/ml) was added and incubation continued for 6 h, then expression of NLRP3 and proIL-1β was measured by Western blotting. […]
(In general: An ELISA detects its analyte on a solid surface through an enzyme-linked reagent.)

The mark [3] stands for this setting: J774A.1, LPS 5.5 h first, then compound 10-40 µM 30 min.
The mark [4] stands for this setting: J774A.1, compound 10-40 µM 30 min before LPS 5.5 h.

Experimental findings from publication PMC3792051, “Polyenylpyrrole Derivatives Inhibit NLRP3 Inflammasome Activation and Inflammatory Mediator Expression by Reducing Reactive Oxygen Species Production and Mitogen-Activated Protein Kinase Activation” (PLoS ONE, 2013) are described below.

`O=c1cc(O)cc(/C=C/C=C/C=C/C=C/c2[nH]ccc2Cl)o1` [compound 1h]: in experiment [1], the “LPS-induced IL-6 secretion” value is “reduced secretion of IL-6 and TNF-α”; the “LPS-induced TNF-α secretion” value is “reduced secretion of IL-6 and TNF-α”. Besides, in experiment [2] (setting [3]), the “Caspase-1 activation (p10)” value is given as “not caspase-1 activation”, the IL-1β secretion entry was “inhibited the LPS-induced increase in IL-1β secretion” and the IL-6 secretion entry is “had no significant effect on IL-6 secretion”. Also, in experiment [2] (setting [4]), the “Generation of active caspase-1 (p10)” value is recorded as “significantly inhibited” and the IL-1β secretion entry is given as “significantly inhibited IL-1β secretion”.
